This is an account of results in US10556856B2, “Antibacterial agents” (Rutgers, The State University of New Jersey, priority 2014, dated 2020).

As usually defined, the MBC is the smallest concentration meeting the test's criterion for killing. Read a high MBC as less potent killing.

SMILES strings stand for the structures. Several values for one entry are separate records, joined by “and”; a condition that tells them apart may be missing. Equal entries are not always repeated. Structures can show the parent of a compound that is named as a salt. Where two headings read alike, the source gives them in different places.

Data set [1] concerns Pseudomonas aeruginosa ATCC 14213. The data set is described as follows: Broth microdilution assay.
For data set [2], the system named is E. coli. The data set is described as follows: Test A MIC/MBC study. Format: cell-based. The conditions noted are these: for MBC: killing of ≥99.9% of the organisms; for MIC: tryptic soy broth, 37° C. overnight. The method, then: (§1) MIC/MBC studies were conducted according to a modified literature procedure (LaDow JE, et al. European Journal of Medicinal Chemistry. 46 (2011) 4219-4226). In brief, stock amphiphile solutions were made in 1 mL double-distilled water (0.1M C8 and C10; 0.02M C12), filter sterilized, and sonicated for five minutes. Stocks were then diluted 100× in tryptic soy broth and vortexed. This broth was serially diluted in fresh broth and 100 μL “doped” broth was transferred to 96-well microtiter plate. 10^6 Cfu/mL inoculums were prepared for E. coli and S. aureus. 100 μL inoculum was added to the wells. Plates were put on a shaker for 5 minutes to mix inoculum and broth. Plates were incubated at 37° C. overnight. Wells were visually analyzed the next day by growth or no growth. After MICs were determined, aliquots were taken from each well, plated, and incubated to determine the MBC values for each compound. MBC values were defined as killing of ≥99.9% of the organisms, which corresponds to a 3-log reduction.

The test system of data set [3] is S. aureus. The data set is described as follows: Test A MIC/MBC study. The data set is classed as cell-based. The conditions noted are these: Staphylococcus aureus; for MBC: killing of ≥99.9% of the organisms; for MIC: tryptic soy broth, 37° C. overnight. The method, then: as §1
Data set [4] has as its system Listeria monocytogenes ATCC 49594. The data set is described as follows: Broth microdilution assay.
Data set [5] has as its system Staphylococcus aureus Rosenbach ATCC 29213. The data set is described as follows: Broth microdilution assay. For orientation: Broth dilution looks for growth in wells or tubes with falling amounts of substance.
Data set [6] relates to Escherichia coli ATCC 43895. The data set is described as follows: Broth microdilution assay.
Data set [7] relates to E. faecium. The data set is described as follows: CLSI/NCCLS broth microdilution assay. Format: cell-based.
For data set [8], the system named is P. aeruginosa. The data set is described as follows: CLSI/NCCLS broth microdilution assay. The data set is classed as cell-based. The conditions noted are these: 18 hours.
For data set [9], the system named is S. aureus. Format: cell-based.
The subject of data set [10] is K. pneumoniae. The data set is described as follows: CLSI/NCCLS broth microdilution assay. Format: cell-based. To be noted: 18 hours.
In data set [11] the test system is B. neotomae. The data set is described as follows: CLSI/NCCLS broth microdilution assay. The data set is classed as cell-based. The conditions noted are these: 18 hours.
The subject of data set [12] is A. baumannii. The data set is described as follows: CLSI/NCCLS broth microdilution assay. The data set is classed as cell-based. To be noted: 18 hours.
Data set [13] has as its system Vero Cell.
In data set [14] the test system is B. cereus. The data set is described as follows: CLSI/NCCLS broth microdilution assay. The data set is classed as cell-based.
For data set [15], the system named is Y. pseudotuberculosis. The data set is classed as cell-based. The conditions noted are these: 18 hours.
For data set [16], the system named is L. pneumophilia. The data set is described as follows: CLSI/NCCLS broth microdilution assay. The data set is classed as cell-based. To be noted: 18 hours.
Data set [17] has as its system B. cepacia. The data set is described as follows: CLSI/NCCLS broth microdilution assay. Format: cell-based. To be noted: 18 hours.
The subject of data set [18] is S. epidermidis. The data set is described as follows: CLSI/NCCLS broth microdilution assay. Format: cell-based.
The mark [19] stands for this setting: P. aeruginosa (G−), TSB, 37° C., 24 h.
Setting [20] is: Escherichia coli, read-out: MIC.
Where [21] appears, read: L. monocytogenes (G+), TSB, 37° C., 24 h.
The mark [22] stands for this setting: S. aureus (G+), TSB, 37° C., 24 h.
[23] abbreviates: E. coli (G−), TSB, 37° C., 24 h.
[24] abbreviates: Pseudomonas aeruginosa, ATCC14213, 24 h.
The mark [25] stands for this setting: Listeria monocytogenes, ATCC49594, 24 h.
The mark [26] stands for this setting: Staphylococcus aureus, ATCC29213, 24 h.
[27] abbreviates: Escherichia coli, ATCC43895, 24 h.

For `CCCNC(=O)[C@H](OC(=O)CCCCCCCN)[C@@H](OC(=O)CCCCCCCN)C(=O)NCCC.Cl.Cl` [Amphiphile B7], the MIC in [1] (setting [19]) was 1000 µM; in [2] (setting [20]), 1000 µM and 588 µg/mL; in [3] it was 500 µM and 294 µg/mL; in data set [4] (setting [21]), 500 µM; in data set [5] (setting [22]), 500 µM; in data set [6] (setting [23]) it was 1000 µM. Besides, the MBC in [2] (Escherichia coli) is 1000 µM and 588 µg/mL; in data set [3], 500 µM and 294 µg/mL.

As to `CCCNC(=O)[C@H](OC(=O)CCCCCCCCCN)[C@@H](OC(=O)CCCCCCCCCN)C(=O)NCCC.Cl.Cl` [Amphiphile B9], the MIC in data set [1] (setting [19]) is 250 µM; in [2] (setting [20]), 500 µM and 322 µg/mL; in data set [3], 125 µM and 80.5 µg/mL; in data set [4] (setting [21]), 125 µM; in data set [5] (setting [22]) it was 125 µM; in data set [6] (setting [23]), 500 µM. Also, the MBC in [2] (Escherichia coli) was 500 µM and 322 µg/mL; in data set [3] it was 250 µM and 171 µg/mL.

On to `CCCNC(=O)[C@H](OC(=O)CCCCCCCCCCCN)[C@@H](OC(=O)CCCCCCCCCCCN)C(=O)NCCC.Cl.Cl` [Amphiphile B11], for which the MIC in data set [7] (E. faecium, 18 hours) is 25 µg/mL; in [1] (setting [19]), 50 µM; in data set [8], >50 µg/mL; in data set [9] (S. aureus, 18 hours) it was 25 µg/mL; in [2] (setting [20]), 400 µM and 280 µg/mL; in data set [3] it was 25 µM and 17.5 µg/mL. The MIC in data set [10] is >50 µg/mL; in data set [11], 25 µg/mL; in [12] it was >50 µg/mL; in data set [14] (B. cereus, 18 hours) it was 50 µg/mL; in data set [15], >50 µg/mL; in [16], >50 µg/mL. Besides, the MIC in data set [4] (setting [21]) was 12.5 µM; in data set [5] (setting [22]), 25 µM; in data set [17], >50 µg/mL; in data set [6] (setting [23]), 100 µM; in [18] (S. epidermidis, 18 hours), 25 µg/mL. For the same compound, the MBC is 400 µM and 280 µg/mL in data set [2] (Escherichia coli); 50 µM and 35 µg/mL in [3]. Further, in [13], the “Vero Cell Cytotoxicity” value is 50 µg/mL.

Take `CCCCCCCCC(=O)OC(C(=O)NCCN)C(OC(=O)CCCCCCCC)C(=O)NCCN.Cl.Cl` (stereo not shown) [Amphiphile G7]: the MIC in [7] (E. faecium, 18 hours) is 6.25 µg/mL; in data set [1] (setting [19]) it was 125 µM; in data set [8] it was 25 µg/mL; in data set [10], 50 µg/mL; in data set [11] it was 3.125 µg/mL; in data set [12], >50 µg/mL. Further, the MIC in data set [14] (B. cereus, 18 hours) is 6.25 µg/mL; in data set [15] it was 12.5 µg/mL; in data set [4] (setting [21]) it was 63 μM and 62.5* μM; in data set [5] (setting [22]), 63 μM and 62.5* μM; in data set [17], >50 µg/mL; in [6] (setting [23]), 63 µM. The MIC in data set [18] worked out at 12.5 µg/mL. The “Vero Cell Cytotoxicity” value in data set [13] is >50 µg/mL.

Regarding `CCCCCCCCCCC(=O)OC(C(=O)NCCN)C(OC(=O)CCCCCCCCCC)C(=O)NCCN.Cl.Cl` (stereo not shown) [Amphiphile G9], the MIC in [7] was 6.25 µg/mL; in data set [1] (setting [19]), 250 µM; in data set [8], >50 µg/mL; in data set [9], 6.25 µg/mL; in [10], >50 µg/mL; in data set [11] it was 3.125 µg/mL. Moreover, the MIC was >50 µg/mL in data set [12]; 6.25 µg/mL in data set [14]; 6.25 µg/mL in data set [15]; 25 µg/mL in data set [16]; 250 µM in data set [4] (setting [21]); 500 µM in data set [5] (setting [22]). Also, the MIC in data set [17] was >50 µg/mL; in [6] (setting [23]) it was 125 µM; in data set [18] it was 6.25 µg/mL. The “Vero Cell Cytotoxicity” value in [13] is 50 µg/mL.

As for `CCCCCCCCCCCCCCCC[N+](C)(C)C` [CTAB, Cetyltrimethylammonium bromide, reference compound], the MIC stood at 16 µM in [1] (setting [24]), 8 µM in [4] (setting [25]), 4 µM in [5] (setting [26]) and 32 µM in [6] (setting [27]).

Take `CCCCCCCCCCCCOS(=O)(=O)[O-].[Na+]` [SDS, Sodium dodecyl sulfate, reference compound]: the MIC in data set [1] (setting [24]) was > 2000 µM; in data set [4] (setting [25]), 2000 µM; in [5] (setting [26]), 1000 µM; in data set [6] (setting [27]), > 2000 µM.

On to `[H]/N=C(/N)N[C@H]1[C@H](O)[C@@H](O)[C@H](O[C@@H]2O[C@@H](C)[C@](O)(C=O)[C@H]2O[C@@H]2O[C@@H](CO)[C@H](O)[C@@H](O)[C@@H]2NC)[C@@H](N/C(N)=N\[H])[C@@H]1O` [Streptomycin Sulfate, reference compound], for which the MBC in data set [2] (Escherichia coli) and in [3] was < 100 µg/mL in each case. For the same compound, the MIC in [2] (setting [20]) was < 100 µg/mL; in data set [2], <100 (<100) μg/mL; in data set [3] it was < 100 µg/mL.
